Experimental data: US12629374B2, “Antimalarial agents” (Merck Sharp & Dohme LLC, priority 2020, dated 2026)

System: ring stage parasites
Assay: Parasite growth potency assay, 72 hours, LDH readout
Assay type: cell-based
Settings: 72 h, parasite growth measured by LDH assay after 72 hours at 37° C.; 0.7% rings, 2% haematocrit; read-out: EC50
How it was run: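 Parasite growth was quantified by LDH assay after a −80 °C freeze-thaw. Before that, compound was incubated for 72 h at 37 °C under humidified gas with ring-stage cultures adjusted to 0.7% parasitemia and 2% haematocrit in serum- and albumax-supplemented RPMI-Hepes.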

In order of rising EC50:
1. CCC1(CC)CC(=O)N([C@H](CCC#N)c2cccc(C(=O)N[C@H]3CCOc4ccccc43)c2)C(=N)N1 [Example 73A, [1-[1-[3-[[(4S)-chroman-4-yl]carbamoyl]phenyl]-3-cyano-propyl]-4,4-diethyl-6-oxo-hexahydropyrimidin-2-ylidene]ammonium; 2,2,2-trifluoroacetate]  0.7 nM
2. CC#CCC[C@H](c1cccc(C(=O)N[C@H]2CCOc3ccccc32)c1)N1C(=N)NC(CC)(CC)CC1=O [Example 74, [1-[1-[3-[[(4S)-chroman-4-yl]carbamoyl]phenyl]hex-4-ynyl]-4,4-diethyl-6-oxo-hexahydropyrimidin-2-ylidene]ammonium; 2,2,2-trifluoroacetate]  0.9 nM
3. CCC[C@H](c1cccc(C(=O)N[C@H]2CCc3ccccc32)c1)N1C(=N)NC(CC)(CC)CC1=O [Example 76, [4,4-diethyl-1-[1-[3-[[(1S)-indan-1-yl]carbamoyl]phenyl]butyl]-6-oxo-hexahydropyrimidin-2-ylidene]ammonium; 2,2,2-trifluoroacetate]  0.9 nM
4. CCC1(CC)CC(=O)N([C@H](CCN2CCCC2)c2cccc(C(=O)N[C@H]3CCOc4ccccc43)c2)C(=N)N1 [Example 58, [1-[1-[3-[[(4S)-chroman-4-yl]carbamoyl]phenyl]-3-pyrrolidin-1-ium-1-yl-propyl]-4,4-diethyl-6-oxo-hexahydropyrimidin-2-ylidene]ammonium; 2,2,2-trifluoroacetate]  1.3 nM
5. CCC1(CC)CC(=O)N(Cc2cc(C(=O)NC3CC(C)(C)Oc4ccccc43)ccn2)C(=N)N1 (centres unmarked) [Example 80, [1-[[4-[(2,2-dimethylchroman-4-yl)carbamoyl]pyridin-1-ium-2-yl]methyl]-4,4-diethyl-6-oxo-hexahydropyrimidin-2-ylidene]ammonium; 2,2,2-trifluoroacetate]  1.7 nM
6. CC(C)[C@]1(C)CC(=O)N(Cc2cccc(C(=O)NC3CC(C)(C)Oc4ccccc43)c2)C(=N)N1 (stereo partly drawn) [Example 79, [(4S)-1-[[3-[(2,2-dimethylchroman-4-yl)carbamoyl]phenyl]methyl]-4-isopropyl-4-methyl-6-oxo-hexahydropyrimidin-2-ylidene]ammonium; 2,2,2-trifluoroacetate]  2.1 nM
7. CCC[C@H](c1cccc(C(=O)N[C@@H]2c3ccccc3C[C@H]2O)c1)N1C(=N)N[C@@](CC)(c2ccccc2)CC1=O [Example 67, [(4R)-4-ethyl-1-[(1R)-1-[3-[[(1R,2R)-2-hydroxyindan-1-yl]carbamoyl]phenyl]butyl]-6-oxo-4-phenyl-hexahydropyrimidin-2-ylidene]ammonium; 2,2,2-trifluoroacetate]  2.7 nM
8. C=C=C(C)[C@H](c1cccc(C(=O)N[C@H]2CCOc3ccccc32)c1)N1C(=N)NC(CC)(CC)CC1=O [Example 78, [1-[1-[3-[[(4S)-chroman-4-yl]carbamoyl]phenyl]-2-methyl-buta-2,3-dienyl]-4,4-diethyl-6-oxo-hexahydropyrimidin-2-ylidene]ammonium; 2,2,2-trifluoroacetate]  3.1 nM
9. CCC1(CC)CC(=O)N([C@H](CCO)c2cccc(C(=O)N[C@H]3CCOc4ccccc43)c2)C(=N)N1 [Example 59, [1-[1-[3-[[(4S)-chroman-4-yl]carbamoyl]phenyl]-3-hydroxy-propyl]-4,4-diethyl-6-oxo-hexahydropyrimidin-2-ylidene]ammonium; 2,2,2-trifluoroacetate]  4.7 nM
10. CC[C@@]1(C(C)C)CC(=O)N(Cc2cc(F)cc(C(=O)N[C@H]3CCOc4ccccc43)c2)C(=N)N1 [Example 60, [(4S)-1-[[3-[[(4S)-chroman-4-yl]carbamoyl]-5-fluoro-phenyl]methyl]-4-ethyl-4-isopropyl-6-oxo-hexahydropyrimidin-2-ylidene]ammonium; 2,2,2-trifluoroacetate]  5.8 nM
11. CC[C@@]1(C(C)C)CC(=O)N(Cc2cc(F)cc(C(=O)N[C@@H]3c4ccccc4C[C@H]3O)c2)C(=N)N1 [Example 61, [(4S)-4-ethyl-1-[[3-fluoro-5-[[(1R,2R)-2-hydroxyindan-1-yl]carbamoyl]phenyl]methyl]-4-isopropyl-6-oxo-hexahydropyrimidin-2-ylidene]ammonium; 2,2,2-trifluoroacetate]  6.1 nM
12. CCC[C@H](c1cccc(C(=O)N[C@H]2CCOc3ccccc32)c1)N1C(=N)N[C@@](CC)(c2ccccc2)CC1=O [Example 66, [(4R)-1-[(1R)-1-[3-[[(4S)-chroman-4-yl]carbamoyl]phenyl]butyl]-4-ethyl-6-oxo-4-phenyl-hexahydropyrimidin-2-ylidene]ammonium; 2,2,2-trifluoroacetate]  7.5 nM
13. CCC1(CC)CC(=O)N(Cc2cc(C#N)cc(C(=O)N[C@H]3CCOc4ccccc43)c2)C(=N)N1 [Example 84, [1-[[3-[[(4S)-chroman-4-yl]carbamoyl]-5-cyano-phenyl]methyl]-4,4-diethyl-6-oxo-hexahydropyrimidin-2-ylidene]ammonium; 2,2,2-trifluoroacetate]  8.3 nM
14. CCC[C@H](c1cccc(C(=O)N[C@@H]2c3ccccc3C[C@H]2O)c1)N1C(=N)N[C@](CC)(c2ccccc2)CC1=O [Example 71, [(4S)-4-ethyl-1-[(1R)-1-[3-[[(1R,2R)-2-hydroxyindan-1-yl]carbamoyl]phenyl]butyl]-6-oxo-4-phenyl-hexahydropyrimidin-2-ylidene]ammonium; 2,2,2-trifluoroacetate]  9.3 nM
15. CCC1(CC)CC(=O)N(Cc2cccc(C(=O)N[C@H]3CCc4ccccc43)c2)C(=N)N1 [Example 77, [4,4-diethyl-1-[[3-[[(1S)-indan-1-yl]carbamoyl]phenyl]methyl]-6-oxo-hexahydropyrimidin-2-ylidene]ammonium; 2,2,2-trifluoroacetate]  14.7 nM
16. CCC[C@H](c1cccc(C(=O)N[C@@H]2c3ccccc3C[C@H]2O)c1)N1C(=N)N[C@](CC2CC2)(c2ccccc2)CC1=O [Example 69, [(4S)-4-(cyclopropylmethyl)-1-[(1R)-1-[3-[[(1R,2R)-2-hydroxyindan-1-yl]carbamoyl]phenyl]butyl]-6-oxo-4-phenyl-hexahydropyrimidin-2-ylidene]ammonium; 2,2,2-trifluoroacetate]  29.3 nM
17. CCC[C@H](c1cccc(C(=O)N[C@@H]2c3ccccc3C[C@H]2O)c1)N1C(=N)N[C@@](CC2CC2)(c2ccccc2)CC1=O [Example 65, [(4R)-4-(cyclopropylmethyl)-1-[(1R)-1-[3-[[(1R,2R)-2-hydroxyindan-1-yl]carbamoyl]phenyl]butyl]-6-oxo-4-phenyl-hexahydropyrimidin-2-ylidene]ammonium; 2,2,2-trifluoroacetate]  43.9 nM
18. CC#CCCC(c1cccc(C(=O)NC2CC(C)(C)Oc3ccccc32)c1)N1C(=N)NC(CC)(CC)CC1=O (centres unmarked) [Example 83A, [1-[1-[3-[(2,2-dimethylchroman-4-yl)carbamoyl]phenyl]hex-4-ynyl]-4,4-diethyl-6-oxo-hexahydropyrimidin-2-ylidene]ammonium; 2,2,2-trifluoroacetate]  62.9 nM
19. CC(C)[C@]1(C)CC(=O)N(Cc2cccc(C(=O)N[C@H]3CCc4ccccc43)c2)C(=N)N1 [Example 75, [(4S)-1-[[3-[[(1S)-indan-1-yl]carbamoyl]phenyl]methyl]-4-isopropyl-4-methyl-6-oxo-hexahydropyrimidin-2-ylidene]ammonium; 2,2,2-trifluoroacetate]  66.5 nM
20. CCC[C@H](c1cccc(C(=O)N[C@H]2CCOc3ccccc32)c1)N1C(=N)N[C@](CC2CC2)(c2ccccc2)CC1=O [Example 68, [(4S)-1-[(1R)-1-[3-[[(4S)-chroman-4-yl]carbamoyl]phenyl]butyl]-4-(cyclopropylmethyl)-6-oxo-4-phenyl-hexahydropyrimidin-2-ylidene]ammonium; 2,2,2-trifluoroacetate]  72.2 nM
21. CCC[C@H](c1cccc(C(=O)N[C@H]2CCOc3ccccc32)c1)N1C(=N)N[C@@](CC2CC2)(c2ccccc2)CC1=O [Example 64, [(4R)-1-[(1R)-1-[3-[[(4S)-chroman-4-yl]carbamoyl]phenyl]butyl]-4-(cyclopropylmethyl)-6-oxo-4-phenyl-hexahydropyrimidin-2-ylidene]ammonium; 2,2,2-trifluoroacetate]  75.4 nM
22. CCC[C@H](c1cccc(C(=O)N[C@H]2CCOc3ccccc32)c1)N1C(=N)N[C@](CC)(c2ccccc2)CC1=O [Example 70, [(4S)-1-[(1R)-1-[3-[[(4S)-chroman-4-yl]carbamoyl]phenyl]butyl]-4-ethyl-6-oxo-4-phenyl-hexahydropyrimidin-2-ylidene]ammonium; 2,2,2-trifluoroacetate]  76 nM
23. CC[C@@]1(C(F)(F)F)CC(=O)N(Cc2cc(F)cc(C(=O)N[C@H]3CCOc4ccccc43)c2)C(=N)N1 [Example 63, [(4S)-1-[[3-[[(4S)-chroman-4-yl]carbamoyl]-5-fluoro-phenyl]methyl]-4-ethyl-6-oxo-4-(trifluoromethyl)hexahydropyrimidin-2-ylidene]ammonium; 2,2,2-trifluoroacetate]  80.2 nM

Same assay, conditions: parasite growth measured by LDH assay after 72 hours at 37° C.; 0.7% rings, 2% haematocrit; trifluoroacetate; read-out: EC50

In order of rising EC50:
1. CCC1(CC)CC(=O)N(Cc2cncc(C(=O)NC3CC(C)(C)Oc4ccccc43)c2)C(=N)N1 (centres unmarked) [Example 81, [1-[[5-[(2,2-dimethylchroman-4-yl)carbamoyl]pyridin-1-ium-3-yl]methyl]-4,4-diethyl-6-oxo-hexahydropyrimidin-2-ylidene]ammonium; 2,2,2-trifluoroacetate]  1.3 nM
2. CCC1(CC)CC(=O)N(Cc2cncc(C(=O)NC3CC(C)(C)Oc4ccccc43)c2)C(=N)N1 (centres unmarked) [Example 82, [1-[[5-[(2,2-dimethylchroman-4-yl)carbamoyl]pyridin-1-ium-3-yl]methyl]-4,4-diethyl-6-oxo-hexahydropyrimidin-2-ylidene]ammonium; 2,2,2-trifluoroacetate]  39.4 nM
3. CC#CCCC(c1cccc(C(=O)NC2CC(C)(C)Oc3ccccc32)c1)N1C(=N)NC(CC)(CC)CC1=O (centres unmarked) [Example 83C, [1-[1-[3-[(2,2-dimethylchroman-4-yl)carbamoyl]phenyl]hex-4-ynyl]-4,4-diethyl-6-oxo-hexahydropyrimidin-2-ylidene]ammonium; 2,2,2-trifluoroacetate]  50.2 nM
